Laboratory results taken from ChEMBL document CHEMBL1287723, “The discovery of new spirocyclic muscarinic M3 antagonists” (Bioorg Med Chem Lett, 2010).

Assays:
[1] = target: T1, Muscarinic acetylcholine receptor M3 (Homo sapiens, UniProt P20309); assay: Displacement of [3H]NMS from human muscarinic M3 receptor expressed in CHO-K1 cells after 16 hrs by scintillation proximity assay; type: cell-based
Target sequence in this assay (P20309 whole entry): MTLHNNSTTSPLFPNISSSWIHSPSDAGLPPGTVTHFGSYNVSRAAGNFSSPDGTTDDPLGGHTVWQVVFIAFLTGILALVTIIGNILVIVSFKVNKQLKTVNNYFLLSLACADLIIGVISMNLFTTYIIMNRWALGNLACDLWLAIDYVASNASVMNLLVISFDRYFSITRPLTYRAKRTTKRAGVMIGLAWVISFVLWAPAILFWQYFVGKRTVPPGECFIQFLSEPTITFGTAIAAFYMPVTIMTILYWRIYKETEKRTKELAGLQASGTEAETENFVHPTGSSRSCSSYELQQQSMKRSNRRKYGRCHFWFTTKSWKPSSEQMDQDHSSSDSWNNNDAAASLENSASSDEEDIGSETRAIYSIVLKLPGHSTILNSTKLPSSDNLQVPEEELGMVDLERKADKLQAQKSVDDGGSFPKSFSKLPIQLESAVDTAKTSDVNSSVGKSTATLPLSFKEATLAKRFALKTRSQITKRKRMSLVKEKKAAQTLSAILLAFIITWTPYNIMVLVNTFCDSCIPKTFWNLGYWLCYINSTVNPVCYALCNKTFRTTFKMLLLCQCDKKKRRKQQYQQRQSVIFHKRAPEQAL

[2] = target: T2, Muscarinic acetylcholine receptor M2 (Homo sapiens, UniProt P08172); assay: Displacement of [3H]NMS from human muscarinic M2 receptor expressed in CHO-K1 cells after 16 hrs by scintillation proximity assay; type: cell-based
T2 sequence (P08172 whole entry): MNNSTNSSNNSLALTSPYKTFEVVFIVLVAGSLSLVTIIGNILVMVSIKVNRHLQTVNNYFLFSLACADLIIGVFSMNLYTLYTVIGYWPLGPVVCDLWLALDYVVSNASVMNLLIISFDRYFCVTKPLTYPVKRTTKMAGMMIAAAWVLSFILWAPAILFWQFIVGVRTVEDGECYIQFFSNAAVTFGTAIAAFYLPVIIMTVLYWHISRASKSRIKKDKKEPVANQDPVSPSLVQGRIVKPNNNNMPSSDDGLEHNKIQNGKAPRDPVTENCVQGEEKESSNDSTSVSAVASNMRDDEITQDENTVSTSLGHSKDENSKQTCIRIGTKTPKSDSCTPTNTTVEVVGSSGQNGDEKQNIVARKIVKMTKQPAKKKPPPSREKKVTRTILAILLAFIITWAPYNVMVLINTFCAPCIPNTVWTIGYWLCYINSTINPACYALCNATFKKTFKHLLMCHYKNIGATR

[3] = target: T3, Muscarinic acetylcholine receptor M4 (Homo sapiens, UniProt P08173); assay: Displacement of [3H]NMS from human muscarinic M4 receptor expressed in CHO-K1 cells after 16 hrs by scintillation proximity assay; type: cell-based
T3 sequence (P08173 whole entry): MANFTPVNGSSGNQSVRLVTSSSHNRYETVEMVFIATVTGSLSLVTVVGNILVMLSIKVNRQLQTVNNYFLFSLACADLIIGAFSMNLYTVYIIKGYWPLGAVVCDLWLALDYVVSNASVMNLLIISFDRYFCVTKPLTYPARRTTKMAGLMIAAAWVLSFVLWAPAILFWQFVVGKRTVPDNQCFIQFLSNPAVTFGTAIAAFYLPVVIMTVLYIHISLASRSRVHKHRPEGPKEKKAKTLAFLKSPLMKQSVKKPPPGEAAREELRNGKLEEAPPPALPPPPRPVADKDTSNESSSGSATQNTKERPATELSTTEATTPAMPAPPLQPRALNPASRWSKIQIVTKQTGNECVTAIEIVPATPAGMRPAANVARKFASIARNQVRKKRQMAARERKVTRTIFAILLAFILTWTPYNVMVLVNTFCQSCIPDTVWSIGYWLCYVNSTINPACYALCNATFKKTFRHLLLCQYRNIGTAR

[4] = target: T4, Muscarinic acetylcholine receptor M5 (Homo sapiens, UniProt P08912); assay: Displacement of [3H]NMS from human muscarinic M5 receptor expressed in CHO-K1 cells after 16 hrs by scintillation proximity assay; type: cell-based
T4 sequence (P08912 whole entry): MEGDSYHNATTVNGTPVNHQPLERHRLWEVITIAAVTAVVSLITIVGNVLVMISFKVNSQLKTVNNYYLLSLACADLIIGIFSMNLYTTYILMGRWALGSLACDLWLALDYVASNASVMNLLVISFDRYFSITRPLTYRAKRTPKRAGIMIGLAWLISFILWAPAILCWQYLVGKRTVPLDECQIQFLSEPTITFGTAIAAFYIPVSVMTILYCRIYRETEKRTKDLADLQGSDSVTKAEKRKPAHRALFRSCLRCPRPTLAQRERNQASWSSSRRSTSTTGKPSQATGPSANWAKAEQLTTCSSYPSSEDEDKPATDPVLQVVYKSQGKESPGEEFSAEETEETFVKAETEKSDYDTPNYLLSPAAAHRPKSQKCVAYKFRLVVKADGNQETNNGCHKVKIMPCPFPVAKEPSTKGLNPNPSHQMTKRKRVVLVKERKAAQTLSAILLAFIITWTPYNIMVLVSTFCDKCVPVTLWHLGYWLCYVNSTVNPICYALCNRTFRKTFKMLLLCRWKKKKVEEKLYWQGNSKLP

[5] = test system: Hepatocyte; assay: Clearance in rat hepatocytes; type: ADME, cell-based, Liver
[6] = Lipophilicity, log D of the compound; type: physicochemical; details: octanol/water
[7] = Clearance in human microsomes; type: ADME, Microsome
[8] = target: T5, Muscarinic acetylcholine receptor M1 (Homo sapiens, UniProt P11229); assay: Displacement of [3H]NMS from human muscarinic M1 receptor expressed in CHO-K1 cells after 16 hrs by scintillation proximity assay; type: cell-based
T5 sequence (P11229 whole entry): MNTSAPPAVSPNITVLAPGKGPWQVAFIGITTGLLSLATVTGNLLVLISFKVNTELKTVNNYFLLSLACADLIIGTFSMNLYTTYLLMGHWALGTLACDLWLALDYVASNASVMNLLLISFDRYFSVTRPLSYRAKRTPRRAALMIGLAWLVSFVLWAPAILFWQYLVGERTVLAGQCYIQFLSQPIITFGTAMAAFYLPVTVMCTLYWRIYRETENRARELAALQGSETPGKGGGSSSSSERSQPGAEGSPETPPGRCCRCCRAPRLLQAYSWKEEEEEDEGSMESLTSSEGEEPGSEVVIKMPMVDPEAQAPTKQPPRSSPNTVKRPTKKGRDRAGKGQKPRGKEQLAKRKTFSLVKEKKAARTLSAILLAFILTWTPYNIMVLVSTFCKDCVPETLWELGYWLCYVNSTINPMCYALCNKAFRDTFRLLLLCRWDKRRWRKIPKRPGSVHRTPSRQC

[9] = target: T1, Muscarinic acetylcholine receptor M3; assay: Displacement of [3H]NMS from human muscarinic M3 receptor expressed in CHO-K1 cells at 1 uM after 16 hrs by scintillation proximity assay; type: cell-based
Target sequence in this assay (P20309 whole entry, looked up): as the sequence (P20309 whole entry) above

Row | IC50 [1] | IC50 [2] | SMILES | other results
1 | > 1000 nM | > 1000 nM | CC(C)(C)c1nc(C(=O)N2CCOC3(CCN(Cc4ccc(Cl)cc4)CC3)C2)cs1 | –
2 | 3.98 nM | 15.8 nM | CC(C)c1nc(C(=O)N2CCOC3(CCN(Cc4ccccc4)CC3)C2)cs1 | –
3 | 63.1 nM | 20 nM | O=C(c1cccs1)N1CCOC2(CCN(Cc3ccc(Cl)cc3)CC2)C1 | –
4 | 398 nM | 126 nM | O=C(c1ncccn1)N1CCOC2(CCN(Cc3ccc(Cl)cc3)CC2)C1 | –
5 | 5.01 nM | 10 nM | CC(C)c1nc(C(=O)N2CCOC3(CCN(Cc4cccc(Cl)c4)CC3)C2)cs1 | –
6 | 15.8 nM | 12.6 nM | CCc1nc(C(=O)N2CCOC3(CCN(Cc4ccc(Cl)cc4)CC3)C2)cs1 | –
7 | 158 nM | 50.1 nM | O=C(c1cscn1)N1CCOC2(CCN(Cc3ccc(Cl)cc3)CC2)C1 | –
8 | 10 nM | 3.16 nM | Cc1nc(C(=O)N2CCOC3(CCN(Cc4ccc(Cl)cc4)CC3)C2)cs1 | CL [5]: 47 µL/min/mg; logD [6]: 2.2; microsomal CLint [7]: 11 µL/min/mg
9 | > 1000 nM | – | O=C(c1cccnc1)N1CCOC2(CCN(Cc3ccc(Cl)cc3)CC2)C1 | –
10 | 31.6 nM | 31.6 nM | O=C(c1ccc2occc2c1)N1CCOC2(CCN(Cc3ccc(Cl)cc3)CC2)C1 | –
11 | 251 nM | 126 nM | O=C(c1ccccc1)N1CCOC2(CCN(Cc3ccc(Cl)cc3)CC2)C1 | –
12 | 50.1 nM | 50.1 nM | Cc1ccc(C(=O)N2CCOC3(CCN(Cc4ccc(Cl)cc4)CC3)C2)o1 | –
13 | 63.1 nM | 25.1 nM | O=C(c1ccco1)N1CCOC2(CCN(Cc3ccc(Cl)cc3)CC2)C1 | –
14 | 398 nM | 79.4 nM | O=C(c1ccon1)N1CCOC2(CCN(Cc3ccc(Cl)cc3)CC2)C1 | –
15 | 200 nM | 39.8 nM | O=C(c1cnsn1)N1CCOC2(CCN(Cc3ccc(Cl)cc3)CC2)C1 | –
16 | 100 nM | 126 nM | O=C(c1ccc(CO)o1)N1CCOC2(CCN(Cc3ccc(Cl)cc3)CC2)C1 | –
17 | > 1000 nM | 79.4 nM | O=C(c1cccnc1)N1CCC2(CCN(Cc3ccccc3)CC2)CC1 | –
18 | 15.8 nM | 31.6 nM | CC(C)c1nc(C(=O)N2CCOC3(CCN(Cc4ccc(Cl)cc4)CC3)C2)cs1 | –
19 | 1.26 nM | 1.26 nM | Cc1nc(C(=O)N2CCOC3(CCN(Cc4cccc(Cl)c4)CC3)C2)cs1 | –
20 | 126 nM | 63.1 nM | O=C(c1ccoc1)N1CCOC2(CCN(Cc3ccc(Cl)cc3)CC2)C1 | –

The remaining lines, values behind:

Row | SMILES | IC50 [1] | IC50 [2] | other results
21 | Cc1nc(C(=O)N2CCCC3(CCN(Cc4ccccc4)CC3)C2)cs1 | > 1000 nM | > 1000 nM | –
22 | CC(C)c1nc(C(=O)N2CCOC3(CCN(Cc4ccccc4Cl)CC3)C2)cs1 | 20 nM | 25.1 nM | –
23 | O=C(c1ccccc1)N1CCC2(CCN(Cc3cccc(Cl)c3)CC2)CC1 | 100 nM | 3.98 nM | –
24 | C[N+]1(C)[C@@H]2C[C@@H](OC(=O)C(O)(c3cccs3)c3cccs3)C[C@H]1[C@@H]1O[C@@H]12 [TIOTROPIUM BROMIDE] | – | – | IC50 [3]: 0.0398 nM; IC50 [4]: 0.1 nM
25 | O=C(c1ccccc1)N1CCC2(CCN(Cc3ccccc3)CC2)CC1 | 126 nM | 6.31 nM | –
26 | Cc1cccc(CN2CCC3(CC2)CCN(C(=O)c2ccccc2)CC3)c1 | 100 nM | 2.51 nM | –
27 | CCOc1ccccc1C(=O)N1CCC2(CCN(Cc3ccccc3)CC2)CC1 | 794 nM | 79.4 nM | –
28 | Cc1nc(C(=O)N2CCOC3(CCN(Cc4ccccc4Cl)CC3)C2)cs1 | 7.94 nM | 3.16 nM | –
29 | O=C(c1ccsc1)N1CCC2(CCN(Cc3ccccc3)CC2)CC1 | 316 nM | 15.8 nM | –
30 | O=C(c1ccco1)N1CCC2(CCN(Cc3ccccc3)CC2)CC1 | > 1000 nM | 79.4 nM | –
31 | Cc1ccccc1CN1CCC2(CC1)CN(C(=O)c1csc(C(C)C)n1)CCO2 | 398 nM | 794 nM | –
32 | O=C(O[C@H]1C[N+]2(CCCOc3ccccc3)CCC1CC2)C(O)(c1cccs1)c1cccs1 [ACLIDINIUM BROMIDE] | – | – | IC50 [3]: 0.2 nM; IC50 [8]: 0.1 nM; IC50 [4]: 0.158 nM
33 | O=C(c1ncccn1)N1CCC2(CCN(Cc3ccccc3)CC2)CC1 | – | 251 nM | inhibition [9]: < 50%
34 | Cc1nc(C(=O)N2CCCC3(CCN(Cc4ccc(Cl)cc4)CC3)C2)cs1 | > 1000 nM | > 1000 nM | –
